Where two headings read alike, the source gives them in different places.
Key:
[1] = tested on: UF1 (p53Null)
[2] = tested on: DU-145 cells; settings: read-out: IC50 (μM) in DU-145 cells; DU-145 (androgen-independent), 48 hours
[3] = tested on: SU-Ph2 cells; assay: Cell growth inhibition assay, SU-Ph2 cells; format: cell-based, human; settings: SU-Ph2, 48 hours
[4] = tested on: A549 cells; assay: Xenograft lung cancer mouse model (A549); format: in vivo
[5] = tested on: p53-mutated colon cancer cell line HT29; settings: HT29, 72 hours
[6] = tested on: medulloblastoma cell line DAOY; settings: DAOY (SHH, TP53-mutated), 48 hours
[7] = tested on: IL3, CSF2 and CSF2RB; assay: qRT-PCR of RUNX1 target genes in MV4-11 cells; format: cell-based, human; settings: 5 μM, 6 hours
[8] = tested on: c-kit, phospho-c-Kit, AKT, phosphorylated AKT, Mitf; assay: Western blot of KIT signalling, HMC-1.2 mast cells; format: cell-based, human; settings: HMC-1.2, 10 μM, 18 hours
Description: (§1) Cells were washed twice with ice cold phosphate-buffered saline (PBS) and harvested in protein lysis buffer [50 mM Tris (pH 7.4), 100 mM NaCl, 0.1 mM EDTA, 1 mM phenylmethylsulfonyl fluoride, 1 mM β-glycerophosphate, 2.5 mM sodium pyrophosphate, 1 mM Na3VO4, lx protease inhibitor (Roche) and PhosSTOP (Roche)]. Whole cell extracts were separated by SDS-polyacrylamide gel electrophoresis (SDS-PAGE) and electrotransferred onto polyvinylidene difluoride membranes. […] Blots were detected using Chemi-Lumi One Super (nacalai tesque, Inc.) and ChemiDoc™ XRS+ Imager (Bio-Rad Laboratories, Inc.), as recommended by the manufacturers. Protein levels were quantified with Image Lab Software (Bio-Rad Laboratories, Inc.).
To the LAD2 cell line and the HMC-1.2 cell line, 10 μM Chb-M′ was administered. After culturing the cells for 18 hours, extracts were obtained from the cells, and the protein expression levels of c-kit, phospho-c-Kit, AKT, phosphorylated AKT, Mitf, and GAPDH were analyzed by the Western blot analysis (see the above-described “Immunoblotting”) using different antibodies. […]

[9] = tested on: ROR1 and ROR2; assay: qRT-PCR of ROR1 and ROR2 in DAOY; format: cell-based, human; settings: 1 μM, 6 hours
Description: A total RNA was isolated with RNeasy mini kit (Qiagen) and reverse transcribed with Reverse script kit (TOYOBO) to generate cDNA. Real-time quantitative polymerase chain reaction (PCR) was carried out with 7500 Real-Time PCR System (Applied Biosystems) according to the manufacturer's instructions. Results were normalized to GAPDH levels. Relative expression levels were calculated using the 2-ΔΔCt method.
To medulloblastoma cell line DAOY, 1 μM Chb-M′ was administered. After 6 hours, the mRNA levels of cancer promoting factors ROR1 and ROR2, which are important for medulloblastoma, were evaluated by qRT-PCR (see the above-described “Real-time quantitative PCR (qRT-PCR)”). As a control, DMSO was administered. In the figure, the mRNA expression levels of ROR1 and ROR2 are shown as values relative to those in the DMSO-treated group. As evident from FIG. 48, the expressions of ROR family were suppressed by Chb-M′ at transcriptional levels.

[10] = tested on: p53, p21, PUMA, and BAX; assay: Western blotting of apoptosis-related factors in lung adenocarcinoma cells; format: cell-based, human; settings: A549 cells and LU99A cells, 1 μM, 24 hours
Description: as §1
To A549 cells and LU99A cells, 1 μM Chb-M′ was administered. After 24 hours, the expression levels of apoptosis-related factors (p53, p21, PUMA, and BAX) were evaluated by the Western blotting method (see the above-described “Immunoblotting”). […]

[11] = tested on: RERF-LC-MS; assay: Cell viability, lung adenocarcinoma RERF-LC-MS; format: cell-based, human; settings: RERF-LC-MS (EGFR wild-type p53-mutated), 48 hours
[12] = tested on: PC-3 cells; assay: PI-AnnexinV apoptosis staining, PC-3 cells; format: cell-based, human; settings: PC-3, 3 μM, 48 hours and 72 hours
Description: To PC-3 cells, 3 μM Chb-M′ was administered. After 48 hours and 72 hours, the percentage of apoptosis was analyzed by PI-AnnexinV apoptosis staining. As a control, DMSO was administered. As a result, the apoptosis rate was increased depending on the […] of Chb-M′ (FIG. 46).

[13] = tested on: SU/SR cells; assay: Xenograft ALL mouse model (SU/SR); format: in vivo

`CN(C)CCCNC(=O)c1cc(NC(=O)c2cc(NC(=O)c3cc(NC(=O)c4cc(NC(=O)CCCNC(=O)c5nc(NC(=O)c6nc(NC(=O)c7cc(NC(=O)c8nc(NC(=O)CCNC(=O)CCCc9ccc(N(CCCl)CCCl)cc9)cn8C)cn7C)cn6C)cn5C)cn4C)cn3C)cn2C)cn1C` [Chb-M′] showed an IC50 ([1]; culture time 48 hours) of 1750 nM, an IC50 ([1]; culture time 72 hours) of 674 nM and an IC50 [2] of 1.82 µM. For the same compound, the “IC50 compared with that of imatinib” value [3] was “lower IC50 values”, the “Effect on the lung cancer model” value ([4]; A549 xenograft) was “inhibited the growth” and the “H&E staining of lung tissue (lung cancer cells in pulmonary alveoli)” value ([4]; day 14 after transplantation) was “rather diminished”. The “Brightness of luciferase (IVIS), lung” value ([4]; day 14 after transplantation, after 2 administrations) was “rather weakened”, the “Bioluminescence signal intensity vs DMSO or gefitinib” value ([4]; day 21 after transplantation) was “far lower” and the “Brightness of luciferase (IVIS), lung” value ([4]; day 21 after transplantation, after total 4 administrations) was “further weakened”. For the same compound, the “Lengthening of overall survival periods” value ([4]; mice with gefitinib-resistant A549, 320 μg/kg IV twice a week from day 7) was “about 2 times”, the IC50 [5] was 2920 nM and the IC50 [6] was 812 nM. The “Expressions of RUNX1 target genes (IL3, CSF2, and CSF2RB), mRNA” value [7] was “effectively inhibited”, the “Expression levels of c-kit and phospho-c-Kit” value [8] was “suppressed” and the “pAKT amount of protein” value [8] was “slight decrease”. The “Expressions of ROR family (ROR1 and ROR2 mRNA)” value [9] was “suppressed”, the “p53 and p21 and apoptotic factors PUMA and BAX (protein)” value [10] was “enhanced” and the “IC50 compared with the EGFR inhibitor (gefitinib)” value [11] was “lower IC50 values”. For the same compound, the Apoptosis rate [12] was “increased”, the “H&E staining of bone marrow” value ([13]; NOG mice with SU/SR) was “homogeneity was lost” and the “Invasion of liver by transplanted PhALL cells (hCD45 staining)” value ([13]; NOG mice with SU/SR) was “reduced”. For the same compound, the “Invasion of spleen by transplanted PhALL cells (hCD45 staining), compared with liver” value ([13]; NOG mice with SU/SR) was “same results”, the “hCD45 staining of bone marrow (human leukemia cells)” value ([13]; NOG mice with SU/SR) was “most of the brown parts lost” and the “Lengthening of overall survival periods” value ([13]; NOG mice with SU/SR (Ph+), 320 μg/kg IV twice a week) was “about 1.8 times”.

Source: patent publication US11235001B2, “RUNX inhibitor” (KYOTO UNIVERSITY, priority 2016, dated 2022)
